What was measured:
[1] = molecular target: Serine/threonine-protein kinase D2 (Homo sapiens, UniProt Q9BZL6); experiment: PKD2(PRD2LHY1) Takeda global kinase panel
[2] = molecular target: Serine/threonine-protein kinase SIK3 (Homo sapiens, UniProt Q9Y2K2); experiment: QSK(SIK3LGP1) Takeda global kinase panel
[3] = molecular target: B1 bradykinin receptor (Homo sapiens) (UniProt P46663); details: Compound concentration 10.0 uM
[4] = molecular target: Casein kinase I isoform epsilon (Homo sapiens, UniProt P49674); experiment: CK1epsilon(CS1ELGI5) Takeda global kinase panel
[5] = molecular target: Leukocyte tyrosine kinase receptor (Homo sapiens, UniProt P29376); experiment: LTK(LTK1LGF1) Takeda global kinase panel
[6] = molecular target: D(3) dopamine receptor (Homo sapiens) (UniProt P35462); details: Compound concentration 10.0 uM
[7] = molecular target: Mixed lineage kinase domain-like protein (Homo sapiens, UniProt Q8NB16); experiment: MLKL(MLKLPHY1) Takeda global kinase panel
Aurora kinase A = Aurora kinase A (Homo sapiens, UniProt O14965); experiment: AurA [Aur2(AURALGF1)] Takeda global kinase panel
[8] = molecular target: Platelet-derived growth factor receptor beta (Homo sapiens, UniProt P09619); experiment: PDGFRbeta(PDGBIHC1) Takeda global kinase panel
[9] = molecular target: Tyrosine-protein kinase SYK (Homo sapiens, UniProt P43405); experiment: Syk(SYK1LHY1) Takeda global kinase panel
[10] = molecular target: Serine/threonine-protein kinase TAO2 (Homo sapiens, UniProt Q9UL54); experiment: TAO2(TAO2LGF1) Takeda global kinase panel
[11] = molecular target: Cyclin-dependent kinase 1 (Homo sapiens, UniProt P06493); experiment: CDC2 [CDK1(CDK1CGS1)] Takeda global kinase panel
[12] = molecular target: Ribosomal protein S6 kinase alpha-6 (Homo sapiens, UniProt Q9UK32); experiment: RSK4(R6A6LGF1) Takeda global kinase panel
[13] = molecular target: Vascular endothelial growth factor receptor 3 (Homo sapiens, UniProt P35916); experiment: FLT4(FLT4LGY1) Takeda global kinase panel
[14] = molecular target: Tyrosine-protein kinase Fgr (Homo sapiens, UniProt P09769); experiment: Fgr(FGR1LGF1) Takeda global kinase panel
[15] = molecular target: Purinergic P2Y (Rattus norvegicus) (UniProt O35811+Q9EPX4+P49651+Q63371+P41232+O35881+Q6GUG4); experiment: Inhibition of Purinergic P2Y at compound concentration of 10.0 uM in the Eurofins-Panlabs radioligand binding assay (Eurofins_assay_268820); type: protein assay; set-up: ligand concentration 0.1 nM; details: Compound concentration 10.0 uM
[16] = molecular target: Serine/threonine-protein kinase B-raf (Homo sapiens, UniProt P15056); experiment: BRAF(BRAFLGY1) Takeda global kinase panel
[17] = molecular target: Serine/threonine-protein kinase TAO3 (Homo sapiens, UniProt Q9H2K8); experiment: TAO3(TAO3LGY1) Takeda global kinase panel
[18] = molecular target: Ribosomal protein S6 kinase alpha-4 (Homo sapiens, UniProt O75676); experiment: MSK2(R6A4LGRJ) Takeda global kinase panel
[19] = molecular target: Mitogen-activated protein kinase 12 (Homo sapiens, UniProt P53778); experiment: p38gamma(MP12LGP1) Takeda global kinase panel
[20] = molecular target: Androgen receptor (Homo sapiens) (UniProt P10275); details: Compound concentration 10.0 uM
[21] = molecular target: Mitogen-activated protein kinase 6 (Homo sapiens, UniProt Q16659); experiment: ERK3(MAP6LHY1) Takeda global kinase panel
[22] = molecular target: Serine/threonine-protein kinase MRCK alpha (Homo sapiens, UniProt Q5VT25); experiment: MRCKalpha(CD4ALGY1) Takeda global kinase panel
[23] = molecular target: Serine/threonine-protein kinase Nek3 (Homo sapiens, UniProt P51956); experiment: Nek3(NEK3LGRI) Takeda global kinase panel
Homo sapiens = species: Homo sapiens; details: Compound concentration 10.0 uM
[24] = molecular target: Vascular endothelial growth factor receptor 1 (Homo sapiens, UniProt P17948); experiment: FLT1(FLT1LGC5) Takeda global kinase panel
[25] = molecular target: Calcium/calmodulin-dependent protein kinase type IV (Homo sapiens, UniProt Q16566); experiment: CaMK4(CAM4LGY1) Takeda global kinase panel
[26] = molecular target: Serine/threonine-protein kinase PLK4 (Homo sapiens, UniProt O00444); experiment: PLK4(PLK4LGF1) Takeda global kinase panel
[27] = molecular target: Protein kinase C zeta type (Homo sapiens, UniProt Q05513); experiment: PKCzeta(PRKZLGP1) Takeda global kinase panel
[28] = molecular target: Protein kinase C beta type (Homo sapiens, UniProt P05771); experiment: PKCbeta(PRKBPHY3) Takeda global kinase panel
[29] = molecular target: Serine/threonine-protein kinase RIO2 (Homo sapiens, UniProt Q9BVS4); experiment: RIOK2(RIO2LGF1) Takeda global kinase panel
[30] = molecular target: Sodium-dependent serotonin transporter (Homo sapiens) (UniProt P31645); details: Compound concentration 10.0 uM
[31] = molecular target: RAC-gamma serine/threonine-protein kinase (Homo sapiens, UniProt Q9Y243); experiment: Akt3 [PKBgamma(AKT3LGY1)] Takeda global kinase panel
[32] = molecular target: Tyrosine-protein kinase FRK (Homo sapiens, UniProt P42685); experiment: FRK(FRK1LGF1) Takeda global kinase panel
[33] = molecular target: Tyrosine-protein kinase Fes/Fps (Homo sapiens, UniProt P07332); experiment: Fes(FES1LHY1) Takeda global kinase panel
[34] = molecular target: cAMP-dependent protein kinase catalytic subunit PRKX (Homo sapiens, UniProt P51817); experiment: PRKX(PRKXLGH5) Takeda global kinase panel
[35] = molecular target: Serine/threonine-protein kinase Nek11 (Homo sapiens, UniProt Q8NG66); experiment: Nek11(NE11LGRI) Takeda global kinase panel
[36] = molecular target: Beta-2 adrenergic receptor (Homo sapiens) (UniProt P07550); details: Compound concentration 10.0 uM
[37] = molecular target: Gamma-aminobutyric acid type B receptor subunit 1 (Homo sapiens) (UniProt Q9UBS5); experiment: Inhibition of GABAB1A at compound concentration of 10.0 uM in the Eurofins-Panlabs radioligand binding assay (Eurofins_assay_228610); set-up: ligand concentration 4 nM; details: Compound concentration 10.0 uM
[38] = molecular target: Kappa-type opioid receptor (Homo sapiens) (UniProt P41145); details: Compound concentration 10.0 uM
[39] = molecular target: Interleukin-1 receptor type 1 (Homo sapiens) (UniProt P14778); experiment: Interleukin IL-1 R1 Eurofins-Panlabs radioligand binding assay; set-up: ligand concentration 0.1 nM; details: Compound concentration 10.0 uM
[40] = molecular target: Ribosomal protein S6 kinase alpha-1 (Homo sapiens, UniProt Q15418); experiment: RSK1 [p90RSK(R6A2CGE1)] Takeda global kinase panel
[41] = molecular target: Phosphatidylinositol 4,5-bisphosphate 3-kinase catalytic subunit beta isoform (Homo sapiens, UniProt P42338); experiment: PIK3CB(PI3BCGRK) Takeda global kinase panel
[42] = molecular target: Cyclin-G-associated kinase (Homo sapiens, UniProt O14976); experiment: GAK(GAK1PGF1) Takeda global kinase panel
[43] = molecular target: Serine/threonine-protein kinase ICK (Homo sapiens, UniProt Q9UPZ9); experiment: ICK(ICK1LGP1) Takeda global kinase panel

Chain of Tyrosine-protein kinase Fgr (P09769 whole entry): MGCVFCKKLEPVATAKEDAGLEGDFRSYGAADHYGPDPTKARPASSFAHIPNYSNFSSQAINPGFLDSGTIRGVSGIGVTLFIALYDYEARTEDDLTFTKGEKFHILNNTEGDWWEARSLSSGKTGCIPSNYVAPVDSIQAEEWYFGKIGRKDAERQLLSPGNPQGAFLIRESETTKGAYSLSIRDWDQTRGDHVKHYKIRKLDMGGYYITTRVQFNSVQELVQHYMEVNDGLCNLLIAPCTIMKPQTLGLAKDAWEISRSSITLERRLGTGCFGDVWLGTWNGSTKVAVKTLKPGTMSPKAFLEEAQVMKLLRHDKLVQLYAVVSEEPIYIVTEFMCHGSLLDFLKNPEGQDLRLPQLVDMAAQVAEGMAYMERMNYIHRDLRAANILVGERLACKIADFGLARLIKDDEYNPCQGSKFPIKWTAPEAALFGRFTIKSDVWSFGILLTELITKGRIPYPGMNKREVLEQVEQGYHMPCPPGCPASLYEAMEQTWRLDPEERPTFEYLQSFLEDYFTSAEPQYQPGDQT
Chain of Tyrosine-protein kinase FRK (P42685 whole entry): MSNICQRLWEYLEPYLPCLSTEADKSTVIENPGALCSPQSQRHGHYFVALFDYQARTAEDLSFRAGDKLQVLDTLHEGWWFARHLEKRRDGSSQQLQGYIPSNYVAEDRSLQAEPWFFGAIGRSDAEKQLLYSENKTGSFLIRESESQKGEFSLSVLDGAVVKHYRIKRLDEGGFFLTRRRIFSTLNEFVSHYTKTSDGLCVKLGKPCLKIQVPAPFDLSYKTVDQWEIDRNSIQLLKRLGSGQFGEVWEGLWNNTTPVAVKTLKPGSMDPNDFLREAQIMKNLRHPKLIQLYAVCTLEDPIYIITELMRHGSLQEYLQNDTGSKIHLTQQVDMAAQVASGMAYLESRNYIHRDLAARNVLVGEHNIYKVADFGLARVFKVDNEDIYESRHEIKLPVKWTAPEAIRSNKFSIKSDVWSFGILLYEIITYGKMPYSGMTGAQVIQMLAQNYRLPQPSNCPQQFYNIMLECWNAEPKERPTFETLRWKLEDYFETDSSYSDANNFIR
Chain of Calcium/calmodulin-dependent protein kinase type IV (Q16566 whole entry): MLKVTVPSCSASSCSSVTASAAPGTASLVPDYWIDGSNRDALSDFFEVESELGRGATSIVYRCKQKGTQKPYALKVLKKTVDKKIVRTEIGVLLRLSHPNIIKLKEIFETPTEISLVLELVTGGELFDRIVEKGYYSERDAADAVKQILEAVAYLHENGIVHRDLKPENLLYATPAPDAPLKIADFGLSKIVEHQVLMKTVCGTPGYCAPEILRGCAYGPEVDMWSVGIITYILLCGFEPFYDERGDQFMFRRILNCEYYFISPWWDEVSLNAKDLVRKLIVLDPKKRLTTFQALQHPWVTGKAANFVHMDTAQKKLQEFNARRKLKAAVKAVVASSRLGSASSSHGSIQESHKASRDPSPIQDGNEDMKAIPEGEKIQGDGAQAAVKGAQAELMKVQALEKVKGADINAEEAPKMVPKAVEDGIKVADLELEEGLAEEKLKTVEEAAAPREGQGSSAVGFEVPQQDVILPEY
Chain of Mitogen-activated protein kinase 6 (Q16659 whole entry): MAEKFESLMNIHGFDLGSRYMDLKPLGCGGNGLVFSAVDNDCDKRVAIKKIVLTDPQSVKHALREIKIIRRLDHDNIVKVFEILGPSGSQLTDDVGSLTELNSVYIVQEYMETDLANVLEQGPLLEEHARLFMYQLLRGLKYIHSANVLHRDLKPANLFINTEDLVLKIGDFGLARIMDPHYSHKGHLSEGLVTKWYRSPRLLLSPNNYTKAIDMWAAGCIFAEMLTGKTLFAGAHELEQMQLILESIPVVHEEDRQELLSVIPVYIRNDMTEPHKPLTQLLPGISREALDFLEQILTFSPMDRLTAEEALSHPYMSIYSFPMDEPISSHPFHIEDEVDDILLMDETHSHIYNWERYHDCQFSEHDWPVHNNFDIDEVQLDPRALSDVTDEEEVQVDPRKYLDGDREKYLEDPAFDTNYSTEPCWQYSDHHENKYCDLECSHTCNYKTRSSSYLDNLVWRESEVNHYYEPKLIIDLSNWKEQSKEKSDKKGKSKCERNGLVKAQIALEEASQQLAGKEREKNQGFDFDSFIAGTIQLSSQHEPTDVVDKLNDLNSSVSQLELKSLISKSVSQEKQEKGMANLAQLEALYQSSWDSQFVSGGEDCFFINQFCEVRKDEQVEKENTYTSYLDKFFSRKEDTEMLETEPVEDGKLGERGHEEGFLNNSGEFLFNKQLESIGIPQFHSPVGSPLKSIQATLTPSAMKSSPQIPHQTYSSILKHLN
Chain of Gamma-aminobutyric acid type B receptor subunit 1 (Homo sapiens) (Q9UBS5 whole entry): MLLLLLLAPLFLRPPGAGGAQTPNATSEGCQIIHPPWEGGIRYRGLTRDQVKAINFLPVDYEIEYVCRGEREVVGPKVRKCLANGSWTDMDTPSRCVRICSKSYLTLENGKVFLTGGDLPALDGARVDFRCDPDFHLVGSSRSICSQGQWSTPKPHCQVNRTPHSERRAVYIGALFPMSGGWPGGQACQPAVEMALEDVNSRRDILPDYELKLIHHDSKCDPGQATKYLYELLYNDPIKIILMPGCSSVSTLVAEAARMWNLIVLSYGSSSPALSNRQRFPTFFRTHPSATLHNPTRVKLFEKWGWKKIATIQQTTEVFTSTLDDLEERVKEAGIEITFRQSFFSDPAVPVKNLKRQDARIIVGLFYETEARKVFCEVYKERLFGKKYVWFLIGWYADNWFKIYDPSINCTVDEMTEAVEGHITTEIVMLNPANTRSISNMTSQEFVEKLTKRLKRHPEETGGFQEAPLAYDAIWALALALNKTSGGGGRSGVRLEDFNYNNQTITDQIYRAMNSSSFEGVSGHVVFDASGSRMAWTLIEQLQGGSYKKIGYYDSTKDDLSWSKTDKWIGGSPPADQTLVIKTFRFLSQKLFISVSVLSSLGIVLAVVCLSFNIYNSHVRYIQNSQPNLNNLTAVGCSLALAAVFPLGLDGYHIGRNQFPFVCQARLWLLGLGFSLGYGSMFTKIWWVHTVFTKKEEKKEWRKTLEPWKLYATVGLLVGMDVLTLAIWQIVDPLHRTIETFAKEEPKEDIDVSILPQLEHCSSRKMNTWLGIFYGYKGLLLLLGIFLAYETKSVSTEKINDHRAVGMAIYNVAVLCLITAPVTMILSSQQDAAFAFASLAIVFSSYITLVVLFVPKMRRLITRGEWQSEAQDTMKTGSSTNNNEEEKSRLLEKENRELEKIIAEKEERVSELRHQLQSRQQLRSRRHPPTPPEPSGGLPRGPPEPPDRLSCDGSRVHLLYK
Chain of Mixed lineage kinase domain-like protein (Q8NB16 whole entry, the tested form may be a part): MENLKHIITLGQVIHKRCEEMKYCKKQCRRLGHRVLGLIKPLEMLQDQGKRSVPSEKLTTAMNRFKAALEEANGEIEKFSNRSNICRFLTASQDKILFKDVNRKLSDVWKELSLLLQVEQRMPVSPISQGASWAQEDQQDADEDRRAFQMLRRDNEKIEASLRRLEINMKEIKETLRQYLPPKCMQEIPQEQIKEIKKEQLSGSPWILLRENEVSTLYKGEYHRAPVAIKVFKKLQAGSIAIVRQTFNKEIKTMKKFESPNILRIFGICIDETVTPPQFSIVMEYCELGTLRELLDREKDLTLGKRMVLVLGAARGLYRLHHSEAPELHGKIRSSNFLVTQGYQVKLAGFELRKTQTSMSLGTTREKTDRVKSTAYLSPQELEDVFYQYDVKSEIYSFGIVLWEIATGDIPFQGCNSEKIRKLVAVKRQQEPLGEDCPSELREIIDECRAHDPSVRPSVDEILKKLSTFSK
Chain of Interleukin-1 receptor type 1 (Homo sapiens) (P14778 whole entry): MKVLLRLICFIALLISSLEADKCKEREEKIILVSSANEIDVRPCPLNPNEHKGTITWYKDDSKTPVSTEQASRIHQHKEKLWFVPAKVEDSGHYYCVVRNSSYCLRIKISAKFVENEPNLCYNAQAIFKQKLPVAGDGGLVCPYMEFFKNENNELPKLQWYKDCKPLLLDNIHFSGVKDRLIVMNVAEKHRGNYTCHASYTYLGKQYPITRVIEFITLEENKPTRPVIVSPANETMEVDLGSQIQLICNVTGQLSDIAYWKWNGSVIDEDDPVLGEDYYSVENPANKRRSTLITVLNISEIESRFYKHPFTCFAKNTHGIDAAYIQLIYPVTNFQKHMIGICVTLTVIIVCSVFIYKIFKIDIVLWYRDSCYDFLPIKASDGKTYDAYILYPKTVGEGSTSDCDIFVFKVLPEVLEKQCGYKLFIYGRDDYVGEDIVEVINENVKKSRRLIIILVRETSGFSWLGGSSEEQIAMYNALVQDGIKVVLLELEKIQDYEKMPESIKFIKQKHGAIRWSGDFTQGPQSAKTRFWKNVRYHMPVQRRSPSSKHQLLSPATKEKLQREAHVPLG
Chain of Protein kinase C zeta type (Q05513 whole entry): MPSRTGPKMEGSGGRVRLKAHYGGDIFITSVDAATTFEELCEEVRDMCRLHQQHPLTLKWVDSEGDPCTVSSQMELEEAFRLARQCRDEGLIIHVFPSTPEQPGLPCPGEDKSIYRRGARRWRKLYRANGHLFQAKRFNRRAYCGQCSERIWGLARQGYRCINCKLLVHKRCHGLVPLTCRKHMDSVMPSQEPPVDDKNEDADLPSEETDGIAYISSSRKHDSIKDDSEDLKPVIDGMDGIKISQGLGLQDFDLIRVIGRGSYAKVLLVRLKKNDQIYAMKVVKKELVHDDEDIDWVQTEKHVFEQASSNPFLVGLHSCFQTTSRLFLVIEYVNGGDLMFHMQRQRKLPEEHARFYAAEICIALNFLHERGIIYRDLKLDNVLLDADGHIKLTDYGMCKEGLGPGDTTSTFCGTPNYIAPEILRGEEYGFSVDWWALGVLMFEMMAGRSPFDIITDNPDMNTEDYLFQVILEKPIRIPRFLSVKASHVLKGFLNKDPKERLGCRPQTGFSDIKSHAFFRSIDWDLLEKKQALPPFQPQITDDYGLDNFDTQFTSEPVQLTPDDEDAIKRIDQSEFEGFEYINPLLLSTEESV

CN1C(=O)[C@@H](N2CCc3cn(Cc4ccccc4)nc3C2=O)COc2ccccc21 [TP-030-1]
IC50 [1]: 1 µM | IC50 [2]: 1 µM | inhibition [3]: 2% | IC50 [4]: 1 µM | IC50 [5]: 1 µM | inhibition [6]: 8% | IC50 [7]: 1 µM | IC50 (Aurora kinase A): 1 µM | IC50 [8]: 1 µM | IC50 [9]: 1 µM | IC50 [10]: 1 µM | IC50 [11]: 1 µM | IC50 [12]: 1 µM | IC50 [13]: 1 µM | IC50 [14]: 1 µM | inhibition [15]: -5% | IC50 [16]: 1 µM | IC50 [17]: 1 µM | IC50 [18]: 1 µM | IC50 [19]: 1 µM | inhibition [20]: 6% | IC50 [21]: 1 µM | IC50 [22]: 1 µM | IC50 [23]: 1 µM | inhibition (Homo sapiens): 21% | IC50 [24]: 1 µM | IC50 [25]: 1 µM | IC50 [26]: 1 µM | IC50 [27]: 1 µM | IC50 [28]: 1 µM | IC50 [29]: 1 µM | inhibition [30]: -4% | IC50 [31]: 1 µM | IC50 [32]: 1 µM | IC50 [33]: 1 µM | IC50 [34]: 1 µM | IC50 [35]: 1 µM | inhibition [36]: -4% | inhibition [37]: 0% | inhibition [38]: 3% | inhibition [39]: -7% | IC50 [40]: 1 µM | IC50 [41]: 1 µM | IC50 [42]: 1 µM | IC50 [43]: 1 µM

CN1C(=O)[C@@H](N2CCc3cn(CC4CCS(=O)(=O)CC4)nc3C2=O)COc2ccccc21 [TP-030n]
IC50 [1]: 1 µM | IC50 [2]: 1 µM | inhibition [3]: 9% | IC50 [4]: 1 µM | IC50 [5]: 1 µM | inhibition [6]: 4% | IC50 [7]: 1 µM | IC50 (Aurora kinase A): 1 µM | IC50 [8]: 1 µM | IC50 [9]: 1 µM | IC50 [10]: 1 µM | IC50 [11]: 1 µM | IC50 [12]: 1 µM | IC50 [13]: 1 µM | IC50 [14]: 1 µM | inhibition [15]: 8% | IC50 [16]: 1 µM | IC50 [17]: 1 µM | IC50 [18]: 1 µM | IC50 [19]: 1 µM | inhibition [20]: 0% | IC50 [21]: 1 µM | IC50 [22]: 1 µM | IC50 [23]: 1 µM | inhibition (Homo sapiens): 2% | IC50 [24]: 1 µM | IC50 [25]: 1 µM | IC50 [26]: 1 µM | IC50 [27]: 1 µM | IC50 [28]: 1 µM | IC50 [29]: 1 µM | inhibition [30]: 5% | IC50 [31]: 1 µM | IC50 [32]: 1 µM | IC50 [33]: 1 µM | IC50 [34]: 1 µM | IC50 [35]: 1 µM | inhibition [36]: 4% | inhibition [37]: -6% | inhibition [38]: 3% | inhibition [39]: -9% | IC50 [40]: 1 µM | IC50 [41]: 1 µM | IC50 [42]: 1 µM | IC50 [43]: 1 µM
